Data from PubChem BioAssay AID270 (DTP/NCI, 2004).
Values joined by “and” are separate entries in the source; they are usually repeats but may differ in a detail not shown here. Equal entries are not always repeated. Records with an inconclusive call do not appear.

Test system: BDF1 mice, s.c. Lewis lung carcinoma, T/C %
Assay: NCI In Vivo Anticancer Drug Screen. Data for tumor model Lewis Lung Carcinoma (subcutaneous) in B6D2F1 (BDF1) mice
Method: The antitumor activity of compounds was measured in mice bearing transplantable tumors. Survival or tumor size were measured and the results are expressed as the measurement made in the treated group (T) divided by the measurement made in the vehicle treated control group (C). The tumor model used in this assay is Lewis Lung Carcinoma (subcutaneous) in B6D2F1 (BDF1) mice

[1] = endpoint: median survival time, dose: 25.0 mg/kg/injection, schedule: Q01DX009 (ip), vehicle: saline with Tween-80, higher = longer survival
[2] = endpoint: median survival time, dose: 50.0 mg/kg/injection, schedule: Q01DX009 (ip), vehicle: saline with Tween-80, higher = longer survival
[3] = endpoint: mean tumor weight, dose: 200.0 mg/kg/injection, schedule: Q01DX011 (ip), vehicle: other, higher = larger tumour

`C/C(=C\c1ccc(C)cc1)[N+](=O)[O-]` was tested, and the T/C [1] was 96 % of control, the T/C [2] was 95 % of control and the T/C (endpoint: median survival time, dose: 100.0 mg/kg/injection, schedule: Q01DX009 (ip), vehicle: saline with Tween-80, higher = longer survival) was 94 % of control.
With `CCOC(=O)NC1=C(N2CC2)C(=O)C(NC(=O)OCC)=C(N2CC2)C1=O` the T/C (endpoint: median survival time, dose: 0.5 mg/kg/injection, schedule: Q01DX009 (ip), vehicle: saline with Tween-80, higher = longer survival) was 110 % of control, the T/C (endpoint: median survival time, dose: 0.67 mg/kg/injection, schedule: Q01DX005 (ip), vehicle: saline with Tween-80, higher = longer survival) was 92 % of control and the T/C (endpoint: median survival time, dose: 2.5 mg/kg/injection, schedule: Q01DX005 (ip), vehicle: saline with Tween-80, higher = longer survival) was 91 % of control. For the same compound, the T/C (endpoint: median survival time, dose: 3.0 mg/kg/injection, schedule: Q01DX009 (ip), vehicle: saline with Tween-80, higher = longer survival) was 100 % of control, the T/C (endpoint: median survival time, dose: 3.0 mg/kg/injection, schedule: Q04DX003 (ip), vehicle: saline with Tween-80, higher = longer survival) was 86 % of control and the T/C (endpoint: median survival time, dose: 4.0 mg/kg/injection, schedule: Q04DX003 (ip), vehicle: saline with Tween-80, higher = longer survival) was 93 % of control. The T/C (endpoint: median survival time, dose: 4.5 mg/kg/injection, schedule: Q01DX009 (ip), vehicle: saline with Tween-80, higher = longer survival) was 96 % of control, the T/C (endpoint: median survival time, dose: 17.0 mg/kg/injection, schedule: Q01DX001 (ip), vehicle: saline with Tween-80, higher = longer survival) was 100 % of control and the T/C (endpoint: median survival time, dose: 26.0 mg/kg/injection, schedule: Q01DX001 (ip), vehicle: saline with Tween-80, higher = longer survival) was 86 % of control.
With `NC(=S)N/N=C/c1cc(-c2cccc(N)c2)ccn1` the T/C (endpoint: median survival time, dose: 6.25 mg/kg/injection, schedule: Q01DX009 (ip), vehicle: saline with Tween-80, higher = longer survival) was 106 % of control, the T/C (endpoint: median survival time, dose: 12.5 mg/kg/injection, schedule: Q01DX009 (ip), vehicle: saline with Tween-80, higher = longer survival) was 102 % of control and 106 % of control and the T/C [1] was 117 % of control and 119 % of control. The T/C [2] was 87 % of control and 123 % of control.
With `O=C(CCBr)N1CCN(C(=O)CCBr)CC1` the T/C (endpoint: median survival time, dose: 2.5 mg/kg/injection, schedule: Q01DX009 (ip), vehicle: saline with Tween-80, higher = longer survival) was 105 % of control, the T/C (endpoint: median survival time, dose: 5.0 mg/kg/injection, schedule: Q01DX009 (ip), vehicle: saline with Tween-80, higher = longer survival) was 105 % of control and the T/C (endpoint: median survival time, dose: 10.0 mg/kg/injection, schedule: Q01DX009 (ip), vehicle: saline with Tween-80, higher = longer survival) was 109 % of control. The T/C (endpoint: median survival time, dose: 20.0 mg/kg/injection, schedule: Q01DX009 (ip), vehicle: saline with Tween-80, higher = longer survival) was 109 % of control, the T/C (endpoint: median survival time, dose: 40.0 mg/kg/injection, schedule: Q01DX009 (ip), vehicle: saline with Tween-80, higher = longer survival) was 106 % of control and the T/C (endpoint: median survival time, dose: 80.0 mg/kg/injection, schedule: Q01DX009 (ip), vehicle: saline with Tween-80, higher = longer survival) was 102 % of control.
`CNCc1ccccc1` was tested, and the T/C (endpoint: mean tumor weight, dose: 25.0 mg/kg/injection, schedule: Q01DX011 (ip), vehicle: carboxymethylcellulose (CMC), higher = larger tumour) was 105 % of control, the T/C (endpoint: mean tumor weight, dose: 50.0 mg/kg/injection, schedule: Q01DX011 (ip), vehicle: carboxymethylcellulose (CMC), higher = larger tumour) was 124 % of control and the T/C (endpoint: mean tumor weight, dose: 100.0 mg/kg/injection, schedule: Q01DX011 (ip), vehicle: carboxymethylcellulose (CMC), higher = larger tumour) was 65 % of control.
In the case of `Fc1ccc(CSc2ncnc3c2ncn3C2CCCCO2)cc1` (configuration not stated), the T/C [3] is reported as 73 % of control and the T/C (endpoint: mean tumor weight, dose: 400.0 mg/kg/injection, schedule: Q01DX011 (ip), vehicle: other, higher = larger tumour) is reported as 33 % of control.
With `CCN(C=O)CC` the T/C (endpoint: mean tumor weight, dose: 88.0 mg/kg/injection, schedule: Q01DX011 (ip), vehicle: other, higher = larger tumour) was 89 % of control, the T/C (endpoint: mean tumor weight, dose: 133.0 mg/kg/injection, schedule: Q01DX011 (ip), vehicle: other, higher = larger tumour) was 102 % of control and the T/C [3] was 68 % of control. For the same compound, the T/C (endpoint: mean tumor weight, dose: 300.0 mg/kg/injection, schedule: Q01DX011 (ip), vehicle: other, higher = larger tumour) was 87 % of control, the T/C (endpoint: mean tumor weight, dose: 300.0 mg/kg/injection, schedule: Q01DX011 (ip), vehicle: saline, higher = larger tumour) was 65 % of control and the T/C (endpoint: mean tumor weight, dose: 600.0 mg/kg/injection, schedule: Q01DX011 (ip), vehicle: saline, higher = larger tumour) was 62 % of control. The T/C (endpoint: mean tumor weight, dose: 900.0 mg/kg/injection, schedule: Q01DX011 (ip), vehicle: saline, higher = larger tumour) was 90 % of control.
`CC1CCOS(=O)O1` (configuration not stated) was tested, and the T/C (endpoint: mean tumor weight, dose: 10.0 mg/kg/injection, schedule: Q01DX011 (ip), vehicle: saline, higher = larger tumour) was 66 % of control, the T/C (endpoint: mean tumor weight, dose: 20.0 mg/kg/injection, schedule: Q01DX011 (ip), vehicle: saline, higher = larger tumour) was 63 % of control and the T/C (endpoint: mean tumor weight, dose: 40.0 mg/kg/injection, schedule: Q01DX011 (ip), vehicle: saline, higher = larger tumour) was 65 % of control.
